# Laboratory results: patent publication US20240400579A1, “SPIROCYCLIC MODULATORS OF CHOLESTEROL BIOSYNTHESIS AND THEIR USE FOR PROMOTING REMYELINATION” (GENENTECH, INC., priority 2021, published 2024)
# Read-outs that look alike come from different tables or passages of the source.
# Experiments:
# [1] = target: human emopamil binding protein and human 7-dehydrocholesterol reductase co-expressing cell membrane (Homo sapiens (Human), UniProt Q15125); experiment: hEBP-DHCR7 radioligand filtration binding assay with [3H]-Compound 118A*; settings: radioligand [3H]-Compound 118A*; HEK293 membrane co-expressing hEBP and DHCR7
# Protocol: Membrane Preparation: human emopamil binding protein and human 7-dehydrocholesterol reductase co-expressing cells were generated by transient transfecting host human embryonic kidney (HEK) 293 cells with 2 DNA constructs containing each protein's coding sequence. Cells were suspension cultured at 37° C. with 5% CO2 in […] 293 Expression Medium (Thermofisher). Whole cell membrane was prepared by harvesting the cell pellet, adding cold membrane buffer (50 mM Tris, pH7.5, 1× Roche COMPLETE EDTA-free protease inhibitor cocktail) 10 times volume of the cell pellets weight, lysing cell pellet on ice by using Dounce homogenizer, spinning at 200 g 4° C. for 15 min, collecting supernatant and spinning again at 25000 g 4° C. for 50 min, transferring pellet to Dounce homogenizer, re-suspending pellet by homogenizing in membrane buffer on ice to reach ˜25 mg/mL, then keeping whole cell membrane aliquots at −80° C.
# Compounds were prepared in a 96-well U bottom plate using an Echo550 machine and 10 mM compound DMSO stock solution, followed by an 8-dose 5-fold serial dilutions protocol with final testing compound concentration ranging from 0.06 to 5000 nM, with DMSO back fill to 100 nL/well and n=2. […] The UniFilter-96 GF/B plates were pre-treated by adding 50 μl/well of 0.3% (v/v) PEI to UniFilter-96 GF/B plates. The plates were sealed and incubated at 4° C. for 3 hrs. Then, the plates were washed with ice-cold assay buffer 3 times. The radioligand binding assay was prepared by adding assay buffer diluted hEBP-DHCR7 membrane at 66.7 μg/ml x 150 μl/well into the 96-well compound plate to reach 10 μg membrane per well. Then, the assay buffer diluted [3H]-Compound 118A* was added at 25 nM×50 μl/well. Following this, the plate was centrifuged at 1000 rpm for 30 secs. The plate was then sealed and agitated at 600 rpm at 22° C. for 5 min, and then incubated at 22° C. for 3 hrs. The incubation was stopped by transferring the binding solution to the pre-treated UniFilter-96 GF/B plate, vacuum filtrated, and then washed four times with ice-cold assay buffer. Following this, the plates were dried at 37° C. for 45 min. The plates were then sealed at the bottom. 40 μl/well of scintillation cocktail was added to the plates. A MicroBeta2 microplate counter was then used to read the plate and analyze the data. For reference and test compounds, the results are expressed as % Inhibition, using the normalization equation: N=100-100×(U−C2)/(C1−C2), where U is the unknown value, C1 is the average of high controls, and C2 is the average value of low controls. The IC50 was determined by fitting percentage of inhibition as a function of compound concentrations with Hill equation using XLfit. Results are expressed as hEBP-DHCR7 Ki (uM) in Table 4. Ki was calculated as described above.
# [2] = tested on: EpiSC-derived OPCs; experiment: In vitro phenotypic screening of OPCs, MBP high-content imaging; format: cell-based, mouse; settings: percentage of MBP+ oligodendrocytes, 3 days, 0.5 nM to 1000 nM, read-out: mOPC EC50
# Protocol: (§1) To assess effects of treatments on OPCs, all treatments were assayed in two or more independent platings of epiblast stem cell-derived OPCs (EpiSC). EpiSC-derived OPCs were obtained using in vitro differentiation protocols and culture conditions described previously (Najm et al, 2011, Nature Methods). OPCs were expanded and frozen down in aliquots. OPCs were thawed into growth conditions for at least one passage before use in further assays.
# EpiSC-derived OPCs were grown and expanded in poly-L-ornithine (PO) and laminin-coated flasks in N2B27 media (DMEM/F12 (Gibco), N2-MAX (R&D Systems), B-27 (ThermoFisher), and GlutaMax (Gibco)) supplemented with FGF2 ([…], R&D systems, 233-FB-025) and PDGF-AA ([…], R&D systems, 233-AA-050) before harvesting for experiments. The cells were seeded onto poly-L-ornithine or poly-D-lysine coated CellCarrier Ultra plates (PerkinElmer) coated with laminin (Sigma, L2020) at a density of 150,000/cm^2 in N2B27 media without growth factors. For dose-response testing, a 1000× compound stock in dimethyl sulphoxide (DMSO) was added to assay plates, resulting in 8-point dose curves with final concentrations between 1000 nM and 0.5 nM. Positive controls and DMSO vehicle controls were included in each assay plate. Cells were incubated under standard conditions (37° C., 5% CO2) for 3 days and fixed with 4% paraformaldehyde (PFA) in phosphate buffered saline (PBS) for 20 min. Fixed plates were washed with PBS, permeabilized with 0.1% Triton X-100, and blocked with 10% donkey serum (v/v) in PBS for 40 min. Then, cells were labelled with MBP antibodies (Abcam, ab7349; 1:200) for 2 h at room temperature, washed with PBS, and stained with Alexa Fluor conjugated secondary antibodies (1:500) for 45 min. Nuclei were visualized by DAPI staining (Sigma; 1 μg/ml), followed by further PBS washes.
# Cells and cell culture plates were imaged on the Operetta High Content Imaging and Analysis system (PerkinElmer). Analysis (PerkinElmer Harmony and Columbus software) began by identifying intact nuclei stained by DAPI. The peri-nuclear region of each cell was then cross-referenced with the mature myelin protein (MBP) stain to identify oligodendrocyte nuclei, and from this the percentage of oligodendrocytes was calculated. EC50 values were calculated using The Levenberg-Marquardt algorithm to fit a Hill equation to dose-response data (0.5 nM to 1000 nM).
# [3] = tested on: zymostenol accumulation in EpiSC-derived OPCs (EBP); experiment: GC/MS-based sterol profiling, zymostenol accumulation; format: cell-based, mouse; settings: 8 doses from 0.15 nM to 333 nM, read-out: mZymo GCMS EC50
# Protocol: as §1
# Sterols were monitored using a modified Folch wash protocol (Hubler et al, 2018, Nature). EpiSC-derived OPCs were plated at 100,000 cells per well in PO— and laminin-coated 96-well plates in N2B27 media without growth factors. After 24 hours, cells were rinsed with saline and plates were frozen. Cholesterol-d7 standard was then added to each well before drying under nitrogen stream and derivatization with 55 μl of bis(trimethylsilyl) trifluoroacetamide. After derivatization, 2 μl were analyzed by gas chromatography/mass spectrometry using an Agilent 5973 Network Mass Selective Detector equipped with a 6890 gas chromatograph system and a HP-5MS capillary column (30 m x 0.25 mm×[…]). Samples were analyzed in full scan mode using electron impact ionization; ion fragment peaks were integrated to calculate sterol abundance, and quantitation was relative to cholesterol-d7. The following ion fragments were used to quantitate each metabolite: cholesterol-d7 (465), FF-Mas (482), cholesterol (368), zymostenol (458), zymosterol (456), Desmosterol (456, 343), 7-dehydrocholesterol (456, 325), lanosterol (393), lathosterol (458), 14-dehydrozymostenol (456, 351). […] All standards were obtained from Avanti Polar Lipids unless otherwise indicated. Calibration curves were generated by injecting varying concentrations of sterol standards and maintaining a fixed amount of cholesterol-D7. For normalized zymostenol accumulation results, the total amount of zymostenol measured after drug treatment was divided by the total amount of zymostenol accumulated after 24 hr treatment with 100 nM positive control reference.
# human emopamil binding protein and human 7-dehydrocholesterol reductase co-expressing cell membrane, sequence (Q15125 whole entry): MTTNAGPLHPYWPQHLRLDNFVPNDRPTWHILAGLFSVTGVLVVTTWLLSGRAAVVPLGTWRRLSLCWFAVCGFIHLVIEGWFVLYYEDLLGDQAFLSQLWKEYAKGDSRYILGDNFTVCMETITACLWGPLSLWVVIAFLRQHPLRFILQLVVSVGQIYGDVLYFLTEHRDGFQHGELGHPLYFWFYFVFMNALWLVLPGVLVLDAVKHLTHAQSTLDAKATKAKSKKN
Ki [1],EC50 [2],EC50 ([3]; 24 hours),"EC50 ([2]; Mus musculus, 72 h)","EC50 ([3]; Mus musculus, 24 h)",SMILES
9.31 nM,2 nM,0.81 nM,,,"C[C@H](Cc1ccc([C@H]2CC[C@](O)(C(F)(F)F)CC2)c(Cl)c1)CN1CCC2(C1)CS(=O)(=O)C2 (stereo in doubt) [116B*, 6-((S)-3-(3-Chloro-4-((1s,4S)-4-hydroxy-4-(trifluoromethyl)cyclohexyl)phenyl)-2-methylpropyl)-2-thia-6-azaspiro[3.4]octane 2,2-dioxide, and 6-((R)-3-(3-chloro-4-((1r,4R)-4-hydroxy-4-(trifluoromethyl)cyclohexyl)phenyl)-2-methylpropyl)-2-thia-6-azaspiro[3.4]octane 2,2-dioxide]"
17 nM,,,3.89 nM,2.64 nM,"O=S1(=O)CC2(CCN(CCOc3ccnc(C(F)(F)F)c3)CC2)C1 [Compound 236, 7-(2-((2-(Trifluoromethyl)pyridin-4-yl)oxy)ethyl)-2-thia-7-azaspiro[3.5]nonane 2,2-dioxide]"
7.95 nM,,,2.8 nM,0.94 nM,"O=S1(=O)CC2(CCN(CCOc3ccc(C(F)(F)F)c(F)c3)CC2)C1 [Compound 228, 7-(2-(3-Fluoro-4-(trifluoromethyl)phenoxy)ethyl)-2-thia-7-azaspiro[3.5]nonane 2,2-dioxide]"
29.9 nM,,,25 nM,4.9 nM,"CC(C)(Cc1ccc(C(F)(F)F)cn1)CN1CCC2(C1)CS(=O)(=O)C2 [Example 150, 6-(2,2-Dimethyl-3-(5-(trifluoromethyl)pyridin-2-yl)propyl)-2-thia-6-azaspiro[3.4]octane-2,2-dioxide]"
9.86 nM,,,0.46 nM,0.35 nM,"C[C@H](Cc1ccc(C2CCC(F)(F)CC2)c(Cl)c1)CN1CCC2(C1)CS(=O)(=O)C2 (single isomer, unassigned) [117B*]"
9.72 nM,,,7.5 nM,5.5 nM,"CC(Cc1ccc(C2CC2)cc1)CN1CCC2(C1)CS(=O)(=O)C2 (racemic) [Compound 108, 6-(3-(4-Cyclopropylphenyl)-2-methylpropyl)-2-thia-6-azaspiro[3.4]octane 2,2-dioxide]"
24.6 nM,,,6.3 nM,1.6 nM,"CC(C)(Cc1cncc(C(F)(F)F)c1)CN1CCC2(C1)CS(=O)(=O)C2 [Example 149, 6-(2,2-Dimethyl-3-(5-(trifluoromethyl)pyridin-3-yl)propyl)-2-thia-6-azaspiro[3.4]octane-2,2-dioxide]"
110 nM,,,135 nM,34 nM,"O=S1(=O)CC2(CCN(CCOc3ccc(F)cn3)CC2)C1 [Compound 229, 7-(2-((5-Fluoropyridin-2-yl)oxy)ethyl)-2-thia-7-azaspiro[3.5]nonane 2,2-dioxide]"
28.9 nM,,,6.8 nM,2.3 nM,"O=S1(=O)CC2(CCN(CCOc3ccc(F)cc3F)CC2)C1 [Example 204, 7-(2-(2,4-Difluorophenoxy)ethyl)-2-thia-7-azaspiro[3.5]nonane 2,2-dioxide]"
13.5 nM,,,29 nM,15 nM,"C[C@@H](CN1CCC2(C1)CS(=O)(=O)C2)Oc1ccc(C(F)(F)F)cc1 (single isomer, unassigned) [115B*]"
21.3 nM,,,15 nM,13 nM,"CC(C)(CN1CCC2(C1)CS(=O)(=O)C2)Oc1cccc(F)c1 [Example 127, 6-(2-(3-Fluorophenoxy)-2-methylpropyl)-2-thia-6-azaspiro[3.4]octane-2,2-dioxide]"
11.9 nM,54 nM,14 nM,,,"C[C@H](Cc1ccc([C@H]2CC[C@](C)(O)CC2)c(Cl)c1)CN1CCC2(C1)CS(=O)(=O)C2 (mixture of isomers) [Compound 123A, 6-((R)-3-(3-Chloro-4-((1r,4R)-4-hydroxy-4-methylcyclohexyl)phenyl)-2-methylpropyl)-2-thia-6-azaspiro[3.4]octane 2,2-dioxide, 6-((S)-3-(3-chloro-4-((1r,4S)-4-hydroxy-4-methylcyclohexyl)phenyl)-2-methylpropyl)-2-thia-6-azaspiro[3.4]octane 2,2-dioxide]"
14.7 nM,,,220 nM,42 nM,"O=S1(=O)CC2(CCN(CC3(Oc4ccc(C(F)(F)F)cc4)CCCC3)CC2)C1 [Example 202, 7-((1-(4-(Trifluoromethyl)phenoxy)cyclopentyl)methyl)-2-thia-7-azaspiro[3.5]nonane 2,2-dioxide]"
65.3 nM,,,63 nM,9.8 nM,"C[C@H](CN1CCC2(CC1)CS(=O)(=O)C2)Oc1ccc(C(F)(F)F)nc1 (single isomer, unassigned) [Example 207B*]"
504 nM,,,282 nM,52 nM,"O=S1(=O)CC2(CCN(CCOc3cncc(F)c3)CC2)C1 [Example 210, 7-(2-((5-Fluoropyridin-3-yl)oxy)ethyl)-2-thia-7-azaspiro[3.5]nonane 2,2-dioxide]"

SMILES,Ki [1],EC50 [2],EC50 ([3]; 24 hours),"EC50 ([2]; Mus musculus, 72 h)","EC50 ([3]; Mus musculus, 24 h)"
"C[C@H](Cc1ccc(C(F)(F)F)nc1)CN1CCC2(C1)CS(=O)(=O)C2 (single isomer, unassigned) [118B*]",50.5 nM,,,140 nM,54 nM
